The test system of experiment [1] is cap-dependent translation in Flp-In-293 reporter cells. The experiment can be described thus: Cellular cap-dependent translation inhibition assay (dual luciferase assay, DLA; Fluc/Rluc ratio, 24 hours). Format: cell-based.
Experiment [2] addresses T1, human eIF4E protein (Homo sapiens, UniProt P06730).
T1 construct: purchased Novus NBP-45314
The experiment can be described thus: Biochemical competitive binding assay (TR-FRET competition, EDA-m7GDP-ATTO-647N probe). To be noted: read-out: hEIF4E TR-FRET IC50. Summed up:
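IC50 values come from 4-parameter fits of the normalized 665/620 nm TR-FRET ratio. Compound was first incubated 15 min with 4 nM recombinant His-eIF4E bound to 2.5 nM Eu-anti-His antibody, then 15 min with 5 nM m7GDP-ATTO-647N tracer, in pH 7.5 HEPES buffer with 100 mM KCl, Tween-20 and BSA.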

Experiment [3] concerns COLO 205 colorectal tumor cells. The experiment can be described thus: Tumor cell viability inhibition assay (CellTiter-Glo 2.0, 72 hours). Format: cell-based. To be noted: COLO 205 cell viability. Summed up: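 IC50 derived by 4-parameter fitting after normalizing luminescence to DMSO and max-inhibition wells. Compounds tested as 11 concentrations in 4-fold steps on COLO 205 cells seeded at 1500 per well in RPMI-1640/10% FBS; ATP content measured with CellTiter-Glo 2.0 after 72 h.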
(In general: Cellular ATP, detected with luciferase, serves as a proxy for viable cell number.)

Where [4] appears, read: Homo sapiens, Flp-In-293, 24 h, dual luciferase assay, Flp-In-293 reporter cells, 24 hours, Fluc/Rluc ratio, read-out: DLA 205 IC50.
The mark [5] stands for this setting: dual luciferase assay, Flp-In-293 reporter cells, 24 hours, Fluc/Rluc ratio, read-out: DLA 205 IC50.

Structures are written as SMILES. Where two headings read alike, the source gives them in different places.

T1 sequence (P06730 whole entry): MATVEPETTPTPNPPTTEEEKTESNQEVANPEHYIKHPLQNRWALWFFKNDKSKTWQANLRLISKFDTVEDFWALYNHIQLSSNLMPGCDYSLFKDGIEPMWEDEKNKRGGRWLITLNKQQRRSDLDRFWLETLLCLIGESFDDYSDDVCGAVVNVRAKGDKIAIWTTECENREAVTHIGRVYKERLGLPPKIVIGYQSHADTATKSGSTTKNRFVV

Take `Cc1cc(-c2cc(Cl)ccc2OCCn2c(C)nc3c(c2=O)CC(N2CC(F)(F)C2)CC3)c2scc(C(=O)NS(C)(=O)=O)c2n1` (stereo not shown) [Compound 56]: the IC50 in experiment [1] (setting [4]) is 1 to 5 µM; in experiment [2], less than 0.1 µM; in experiment [3] (Homo sapiens, COLO 205, 72 h), 5 to 20 µM.
For `Cc1cc(-c2cc(Cl)ccc2OCCn2c(C)nc3c(c2=O)CC(N2CCCCC2)CC3)c2ccc(C(=O)O)n2n1` (stereo not shown) [Compound 45, 4-[5-chloranyl-2-[2-[2-methyl-4-oxidanylidene-6-(1-piperidyl)-5,6,7,8-tetrahydroquinazolin-3-yl]ethoxy]phenyl]-2-methyl-pyrrolo[1,2-b]pyridazine-7-carboxylic acid], the IC50 in experiment [1] (setting [4]) was less than 1 µM; in experiment [2], less than 0.1 µM; in experiment [3] (Homo sapiens, COLO 205, 72 h) it was less than 5 µM.
For the compound `Cc1cc(-c2cc(Cl)ccc2OCCn2c(C)nc3c(c2=O)CC(N(C)CC2CC(F)(F)C2)CC3)c2scc(C(=O)NS(C)(=O)=O)c2n1` (single isomer, unassigned) [Compound 256], the IC50 in experiment [1] (setting [4]) is less than 1 µM; in experiment [2], less than 0.1 µM; in experiment [3] (Homo sapiens, COLO 205, 72 h), less than 5 µM.
As to `Cc1nc2c(c(=O)n1CC#Cc1ccc(Cl)cc1-c1ccnc3c(C(=O)NS(C)(=O)=O)csc13)CC(N(C)C1CC(F)(F)C1)CC2` (single isomer, unassigned) [Compound 334], the IC50 was less than 1 µM in experiment [1] (setting [5]), less than 0.1 µM in experiment [2] and less than 5 µM in experiment [3].
For the compound `Cc1cc(-c2cc(Cl)ccc2OCCn2c(C)nc3c(c2=O)CC(N(C)C2CNC2)CC3)c2scc(C(=O)O)c2n1` (stereo not shown) [Compound 66, 7-[2-[2-[6-[azetidin-3-yl(methyl)amino]-2-methyl-4-oxidanylidene-5,6,7,8-tetrahydroquinazolin-3-yl]ethoxy]-5-chloranyl-phenyl]-5-methyl-thieno[3,2-b]pyridine-3-carboxylic acid; 2,2,2-tris(fluorenyl)acetic acid], the IC50 in experiment [1] (setting [4]) is greater than 5 µM; in experiment [2], less than 0.1 µM; in experiment [3] (Homo sapiens, COLO 205, 72 h) it was greater than 20 µM.
Regarding `Cc1cc(-c2cc(Cl)ccc2OCCn2c(C)nc3c(c2=O)CC(N2CCN(CC(F)(F)F)CC2)CC3)c2scc(C(=O)O)c2n1` (stereo not shown) [Compound 278], the IC50 is less than 1 µM in experiment [1] (setting [4]); less than 0.1 µM in experiment [2]; less than 5 µM in experiment [3] (Homo sapiens, COLO 205, 72 h).
For `COCCN(C)C1CCc2nc(C)n(CCOc3ccc(Cl)cc3-c3cc(C)nc4c(C(=O)O)csc34)c(=O)c2C1` (stereo not shown) [Compound 33], the IC50 in experiment [1] (setting [4]) was less than 1 µM; in experiment [2], less than 0.1 µM; in experiment [3] (Homo sapiens, COLO 205, 72 h) it was less than 5 µM.
On to `Cc1cc(-c2cc(Cl)ccc2OCCn2c(C)nc3c(c2=O)CC(N(C)CC2(C)COC2)CC3)c2scc(C(=O)O)c2n1` (single isomer, unassigned) [Compound 344], for which the IC50 was less than 1 µM in experiment [1] (setting [4]); less than 0.1 µM in experiment [2]; less than 5 µM in experiment [3] (Homo sapiens, COLO 205, 72 h).
Taken in the same sequence, the figures for `Cc1nc2c(c(=O)n1CC#Cc1ccc(Cl)cc1-c1ccnc3c(C(=O)NS(C)(=O)=O)csc13)CC(N1CCCCC1)CC2` (single isomer, unassigned) [Compound 315] were less than 1 µM, less than 0.1 µM and less than 5 µM.
On to `Cc1cc(-c2cc(Cl)ccc2OCCn2c(C)nc3c(c2=O)CC(N(C)C(=O)C2CN(C)C2)CC3)c2scc(C(=O)O)c2n1` (stereo not shown) [Compound 73], for which the IC50 was greater than 5 µM in experiment [1] (setting [4]); less than 0.1 µM in experiment [2]; greater than 20 µM in experiment [3] (Homo sapiens, COLO 205, 72 h).
Taken in the same sequence, the figures for `Cc1cc(-c2cc(Cl)ccc2OCCn2c(C)nc3c(c2=O)CC(OC2CCN(C)CC2)CC3)c2scc(C(=O)O)c2n1` (stereo not shown) [Compound 92] were greater than 5 µM, 0.1 to 0.5 µM and greater than 20 µM.
With `Cc1cc(-c2cc(Cl)ccc2OCCn2c(C)nc3c(c2=O)CC(N(C)C2CC24CCC4)CC3)c2scc(C(=O)O)c2n1` (stereo not shown) [Compound 262], the IC50 in experiment [1] (setting [4]) was less than 1 µM; in experiment [2], less than 0.1 µM; in experiment [3] (Homo sapiens, COLO 205, 72 h), less than 5 µM.
Regarding `Cc1nc2c(c(=O)n1CCOc1ccc(Cl)cc1-c1cccc(C(=O)O)c1)CC(N(C)C)CC2` (single isomer, unassigned) [Compound 25], the IC50 is 1 to 5 µM in experiment [1] (setting [5]), 0.1 to 0.5 µM in experiment [2] and greater than 20 µM in experiment [3].
On to `Cc1cc(-c2cc(Cl)ccc2OCCn2c(C)nc3c(c2=O)CC(N2CCC2)CC3)c2scc(C(=O)O)c2n1` (stereo not shown) [Compound 8], for which the IC50 is less than 1 µM in experiment [1] (Homo sapiens, Flp-In-293, 24 h, read-out: DLA 205 IC50, dual luciferase assay, Flp-In-293 reporter cells, 24 hours, Fluc/Rluc ratio); less than 0.1 µM in experiment [2]; 5 to 20 µM in experiment [3] (Homo sapiens).
As for `Cc1cc(-c2cc(Cl)ccc2OCCn2c(C)nc3c(c2=O)CC(N2CC4(COC4)C2)CC3)c2scc(C(=O)O)c2n1` (stereo not shown) [Compound 20], the IC50 in experiment [1] (setting [4]) was less than 1 µM; in experiment [2] it was less than 0.1 µM; in experiment [3] (Homo sapiens, COLO 205, 72 h), less than 5 µM.
On to `Cc1cc(-c2cc(Cl)ccc2OCCn2c(C)nc3c(c2=O)CC(N(C)C2CC2)CC3)c2c(n1)c(C(=O)NS(C)(=O)=O)cn2C` (stereo not shown) [Compound 272], for which the IC50 is greater than 5 µM in experiment [1] (setting [4]); 0.5 to 5 µM in experiment [2]; greater than 20 µM in experiment [3] (Homo sapiens, COLO 205, 72 h).
Take `Cc1nc2c(c(=O)n1CC#Cc1ccc(Cl)cc1-c1ccnc3c(C(=O)O)csc13)CC(N(C)C)CC2` (single isomer, unassigned) [Compound 296]: the IC50 is greater than 5 µM in experiment [1] (setting [4]); 0.5 to 5 µM in experiment [2]; greater than 20 µM in experiment [3] (Homo sapiens, COLO 205, 72 h).
Take `Cc1cc(-c2cc(Cl)ccc2OCCn2c(C)nc3c(c2=O)CC(N(C2CC2)C2CC2)CC3)c2scc(C(=O)O)c2n1` (stereo not shown) [Compound 352]: the IC50 in experiment [1] (setting [4]) is less than 1 µM; in experiment [2], less than 0.1 µM; in experiment [3] (Homo sapiens, COLO 205, 72 h), less than 5 µM.
On to `Cc1cc(-c2cc(Cl)ccc2OCCn2c(C)nc3c(c2=O)CC(N2CC(F)C2)CC3)c2scc(C(=O)NS(C)(=O)=O)c2n1` (single isomer, unassigned) [Compound 343], for which the results for the IC50 in experiment [1] (setting [5]), in experiment [2] and in experiment [3] were less than 1 µM, less than 0.1 µM and less than 5 µM, respectively.
On to `Cc1cc(-c2cc(Cl)ccc2OCCn2c(C)nc3c(c2=O)CC(N2CCC(F)(F)C2)CC3)c2scc(C(=O)NS(C)(=O)=O)c2n1` (stereo not shown) [Compound 60], for which the IC50 was less than 1 µM in experiment [1] (setting [4]); less than 0.1 µM in experiment [2]; less than 5 µM in experiment [3] (Homo sapiens, COLO 205, 72 h).
Consider `Cc1cc(-c2cc(Cl)ccc2OCCn2c(C)nc3c(c2=O)C[C@H](N2CCC4(CCCO4)CC2)CC3)c2scc(C(=O)O)c2n1` (single isomer, unassigned) [Compound 420], for which the IC50 is less than 0.1 µM in experiment [2] and 5 to 20 µM in experiment [3] (Homo sapiens, COLO 205, 72 h).
On to `Cc1cc(-c2cc(Cl)ccc2OCCn2c(C)nc3c(c2=O)C[C@@H](N2C[C@H]4CC[C@@H]2CC4OC(F)(F)F)CC3)c2scc(C(=O)O)c2n1` (single isomer, unassigned) [Compound 502], for which the IC50 was less than 0.1 µM in experiment [2] and less than 5 µM in experiment [3] (Homo sapiens, COLO 205, 72 h).
`Cc1cc(-c2cc(Cl)ccc2OCCn2c(C)nc3c(c2=O)CC(N2CCC4(CC2)CNCCO4)CC3)c2scc(C(=O)O)c2n1` (single isomer, unassigned) [Compound 528]: the IC50 in experiment [2] is less than 0.1 µM; in experiment [3], greater than 20 µM.
Consider `Cc1cc(-c2cc(Cl)ccc2OCCn2c(C)nc3c(c2=O)C[C@H](N2CCC(c4cc(F)cc(F)c4F)CC2)CC3)c2scc(C(=O)O)c2n1` (single isomer, unassigned) [Compound 573], for which the IC50 in experiment [2] is less than 0.1 µM; in experiment [3] (Homo sapiens, COLO 205, 72 h), less than 5 µM.
Taken in the same sequence, the figures for `Cc1csc([C@H]2CCCN([C@H]3CCc4nc(C)n(CCOc5ccc(Cl)cc5-c5cc(C)nc6c(C(=O)O)csc56)c(=O)c4C3)C2)n1` (single isomer, unassigned) [Compound 482] were less than 0.1 µM and less than 5 µM.

For the origin of these results see patent publication US20240246918A1, “COMPOUNDS AND COMPOSITIONS AS EIF4E INHIBITORS AND THE USES THEREOF” (Ribometrix, Inc., priority 2022, published 2024).
